In PMC12298827, “Subchronic Toxicities of Four Per- and Polyfluoroalkyl Substances (PFASs) by Oral Exposure in Sprague–Dawley Rats” (Toxics, 2025):
In brackets after ≈: the same amount, converted by molar mass. Read-outs that look alike come from different tables or passages of the source.

Legend:
[1] = Parent chemical in rat plasma, 14-day study; format: in vivo; details: for concentration at 15 day: Sprague-Dawley, rat, plasma, oral; for Percentage of the dose in the plasma: 14 days
Experimental: Dose-range-finding (14-day) studies were conducted using male and female rats to establish dose levels for 90-day studies and identify potential target organ toxicities. Male and female rats (n = 5 sex/group, a control and three dose groups, corn oil vehicle dose volume of 5 mL/kg) were administered PFASs by oral gavage daily for 14 days and euthanized on study day (SD) 15. The dose levels for PFHI, CTFPA, and MHFPK were 0, 30, 100, and 300 mg/kg-day. The dose levels for PFNAC were 0, 10, 30, and 100 mg/kg-day. The in vivo data collected included BW, BWCs, FC, cage-side observations, and physical exams. Gross necropsies, relative and absolute organ weights, and clinical chemistry data were collected for all the groups. Macroscopic and microscopic pathology examinations were conducted for the control and high-dose groups initially; the other groups were examined if justified by experimental findings. Plasma samples were analyzed ~2 h post dosing on day 1 and at day 15 for the parent PFAS chemical.
(§1) On SD 1 of the 14-day study (~2 h post dosing), 0.2 mL of blood was collected via tail vein puncture in tubes containing K3EDTA and stored on wet ice. Prior to the scheduled euthanasia, blood (~1 mL) was collected from the jugular vein in tubes containing K3EDTA and stored on wet ice on SD 15, for the 14-day study, and SD 91, for the 90-day study. All the tubes were centrifuged at an ~1500 relative centrifugal force within 1 h of collection for 15 min at 5 ± 3 °C. The plasma was stored at −75 ± 15 °C until the analysis. PFNAC and PFHI were analyzed using a headspace GC–mass spectrometry (MS) method, as summarized in Table S3, and CTFPA was analyzed using an ultra-HPLC-MS method, as summarized in Table S4. The MHFPK samples were not analyzed because a method suitable for plasma was not available. The details concerning the preparation of the samples, method blanks, and matrix and QC standards for the analysis are available in the appendices to the study reports.

[2] = Solubility in dosing vehicles; format: physicochemical
Excerpt: Based on solubility, corn oil (Welsh, Holme & Clark Inc., Newark, NJ, USA) was used as the vehicle for all four PFASs. Gas chromatography (GC) with flame ionization detection (FID) was used for the analysis of the PFNAC, PFHI, and MHFPK formulations, and a high-performance liquid chromatography (HPLC) method with ultraviolet spectroscopy was used for the CTFPA formulation. The details of the dosing solution analytical conditions are summarized in supplemental Tables S1 and S2. These analytical methods were developed specifically for these subchronic toxicity studies. […] Dosing solutions were prepared and replaced between at least every 29 days and no more than every 39 days.
PFNAC, PFHI, and MHFPK were soluble in corn oil up to 67, 200, and 100 mg/mL, respectively. As solubility in aqueous vehicles was 40 mg/mL or less for all three chemicals, corn oil was chosen as the vehicle. PFNAC was stable at the ambient temperature for 51 days at target concentrations of 0.2 and 10 mg/mL PFHI was stable in corn oil at ambient temperatures and target concentrations of 1 and 80 mg/mL for up to 70 days. MFHPK was stable in corn oil at room temperature for up to 44 days at target concentrations of 5 and 100 mg/mL. CTFPA was soluble in both deionized (DI) water and corn oil at 200 mg/mL when stored refrigerated overnight. […] Thus, corn oil was chosen as the vehicle for CTFPA. The stability of the CTFPA in the corn oil was evaluated for 8, 13, 15, 23, 35, and 42 days stored refrigerated in plastic bottles. CTFPA at 40 mg/mL was stable for up to 42 days. CTFPA at 0.6 mg/mL was stable for up to […] when refrigerated in plastic bottles but by 42 days had decreased to approximately 81%.

[3] = tested on: male SD rats; assay: Single-dose tolerability study, oral gavage; format: in vivo, rat; details: single oral dose in corn oil, n = 3/dose
Experimental: Tolerability, 14-day dose-range-finding, and 90-day subchronic toxicity studies were conducted at Inotiv (Gaithersburg, MD, USA), monitored by the Research Triangle Institute (RTI) (Durham, NC, USA) and sponsored and funded by the EPA. Tolerability studies used four PFAS dose levels plus a control, with the high doses not to exceed 1000 mg/kg (subject to solubility in corn oil, dose volume of 5 or 10 mL/kg) and lower doses separated by threefold spacing. The dose levels for PFHI, MHFPK, and CTFPA were […]. The dose levels for PFNAC were 0, 25, 75, 225, and 667 mg/kg. Tolerability was studied using male rats (n = 3 rats/group) that received a single dose by oral gavage. The rats were euthanized at 48 hours post dosing. The data collected were bodyweight (BW) and BW changes (BWCs), feed consumption (FC) and water consumption (WC), cage-side observations, and physical exams; no necropsies were performed.

[4] = Parent chemical in rat plasma, 90-day study; format: in vivo; details: for concentration at 91 day: Sprague-Dawley, rat, plasma, oral; for Percentage of the dose in the plasma: 90 days
Experimental: Subchronic (90-day) studies were performed in accordance with current U.S. EPA’s Toxic Substances Control Act Good Laboratory Practice (GLP) Standards, with the following two general exceptions to the GLP guidelines: Analysis of the dose formulations was conducted according to RTI-approved Standard Operating Procedures, and corn oil (the vehicle) was not characterized (certificate of analysis from the vendor is available in the appendices to the final reports). Male and female Sprague–Dawley rats (five dose levels plus a control, n = 10/sex/dose group, corn oil vehicle dose volume of 3 mL/kg; oral gavage) were used in these studies, and the rats were euthanized on SD 91. The dose levels for PFHI were 0, 12.5, 25, 50, 100, and 200 mg/kg-day. The dose levels for MHFPK were 0, 18.8, 37.5, 75, 150, and 300 mg/kg-day. The dose levels for PFNAC were 0, 0.1, 0.3, 1.0, 3.0, and 10 mg/kg-day for male rats and 0, 0.3, 1.0, 3.0, 10, and 30 mg/kg-day for female rats. For CTFPA, the dose levels were 0, 1.9, 3.8. 7.5, 15, and 30 mg/kg-day for male rats and 0, 6.3, 12.5, 25, 50, and 100 mg/kg-day for female rats. For each PFAS, three batches of dosing solution were prepared. The time between the batch preparation of the dosing solutions ranged between 29 and 39 days. Blood samples were collected from all the rats at termination for serum chemistry, hematology, coagulation, and the analysis of the parent PFAS chemical in the plasma. In vivo data collection and further detail on the endpoints examined postmortem are described below.
as §1

[5] = male, Day 1 (2 hours post dosing), 100 mg/kg-day
[6] = corn oil, oil or lipid, read-out: Solubility in corn oil
[7] = male, Day 1 (2 hours post dosing), 30 mg/kg-day
[8] = male, Day 1 (2 hours post dosing), 300 mg/kg-day

| Compound | Parent chemical in plasma ([1]; female, Day 1, 100 mg/kg-day) | Parent chemical in plasma ([1]; female, Day 15, 100 mg/kg-day) | Parent chemical in plasma [1, 5] | solubility [2, 6] | Summary of observations [3] | concentration at 15 day ([1]; female, Day 15, 300 mg/kg-day) | concentration at 15 day ([1]; male, Day 15, 100 mg/kg-day) | concentration at 15 day ([1]; male, Day 15, 300 mg/kg-day) | Parent chemical in plasma ([1]; female, Day 1, 30 mg/kg-day) | Parent chemical in plasma ([1]; female, Day 1, 300 mg/kg-day) | Parent chemical in plasma [1, 7] | Parent chemical in plasma [1, 8] | concentration at 91 day ([4]; female, Day 91, 50 mg/kg-day) | concentration at 91 day ([4]; female, Day 91, 100 mg/kg-day) | further results |
| --- | --- | --- | --- | --- | --- | --- | --- | --- | --- | --- | --- | --- | --- | --- | --- |
| C=CC(=O)OCC(F)(F)C(F)(F)C(F)(F)C(F)(F)C(F)(F)C(F)(F)C(F)(F)C(F)F [PFNAC, 1H,1H,9H-Perfluorononyl acrylate] | Parent chemical not detected at the highest dose | Parent chemical not detected at the highest dose | Parent chemical not detected at the highest dose | ≤ 67 mg/mL | No mortality and no abnormal clinical observations, some lowering of bodyweight, bodyweight changes, and feed consumption in all the treated groups not reaching statistical significance |  |  |  |  |  |  |  |  |  | Parent chemical in plasma ([1]; male, Day 15, 100 mg/kg-day): Parent chemical not detected at the highest dose; Parent chemical in plasma ([4]; female, Day 91, highest dose 30 mg/kg-day): Parent chemical not detected at the highest dose; Parent chemical in plasma ([4]; male, Day 91, highest dose 10 mg/kg-day): Parent chemical not detected at the highest dose |
| CC(=O)C(F)(F)C(F)(F)C(F)(F)F [MHFPK, Methyl heptafluoropropyl ketone] |  |  |  | ≤ 100 mg/mL | No mortality. Clinical signs of low activity and minimal ataxia on study day 1 at 1000 mg/kg, with recovery on the following two observation days |  |  |  |  |  |  |  |  |  |  |
| FC(F)(F)C(F)(F)C(F)(F)C(F)(F)CCI [PFHI, 1H,1H,2H,2H-Perfluorohexyl iodide] | 470 ± 427 ng/mL | ≤LOQ | 333 ± 147 ng/mL | ≤ 200 mg/mL | No mortality and no abnormal clinical observations, no effect on bodyweight; some bodyweight changes in high-dose group were considered as chemical-related | 14.3 ± 7.12 ng/mL | 4.87 ± 1.93 ng/mL | 26.7 ± 8.79 ng/mL | 14.7 ± 8.21 ng/mL | 1070 ± 689 ng/mL | 159 ± 79.3 ng/mL | 2040 ± 1250 ng/mL | 12.2 ± 9.91 ng/mL | 48.3 ± 22.9 ng/mL | Lower plasma concentration for SD 15 compared to SD 1 ([1]; 14-day study): 10- to 100 fold; Parent chemical in plasma ([1]; female, Day 15, 30 mg/kg-day): ND/BLOD; Parent chemical in plasma ([1]; male, Day 15, 30 mg/kg-day): <BLOD/≤LOQ; concentration at 91 day ([4]; female, Day 91, 200 mg/kg-day): 76.7 ± 24.1 ng/mL; concentration at 91 day ([4]; male, Day 91, 200 mg/kg-day): 52.4 ± 24.1 ng/mL; Parent chemical in plasma ([4]; female, Day 91, 12.5 mg/kg-day): BLOD (below the limit of detection—1.7 ng/mL); Parent chemical in plasma ([4]; female, Day 91, 25 mg/kg-day): <BLOD/≤LOQ; Parent chemical in plasma ([4]; male, Day 91, 12.5 mg/kg-day): BLOD (below the limit of detection—1.7 ng/mL); Parent chemical in plasma ([4]; male, Day 91, 25 mg/kg-day): <BLOD/≤LOQ; Parent chemical in plasma ([4]; male, Day 91, 50 mg/kg-day): 14.0 ± 6.21 ng/mL; Parent chemical in plasma ([4]; male, Day 91, 100 mg/kg-day): 43.8 ± 7.53 ng/mL |
| O=C(O)C(F)(Cl)C(F)(F)F (centres unmarked) [CTFPA, 2-Chloro-2,3,3,3-tetrafluoropropanoic acid] | 107,000 ± 30,400 ng/mL |  | 122,000 ± 43,800 ng/mL |  | No mortality and no effect on absolute bodyweight gains or water consumption; clinical observations of low activity, decreased bodyweight and decreased feed consumption at high doses | 123000 ng/mL | 99100 ng/mL | 120000 ng/mL | 46,700 ± 10,000 ng/mL | 297,000 ± 56,500 ng/mL | 48,400 ± 8430 ng/mL | 321,000 ± 60,600 ng/mL | 71500 ng/mL | 116000 ng/mL | concentration at 15 day ([1]; female, Day 15, 30 mg/kg-day): 27200 ng/mL; concentration at 15 day ([1]; female, Day 15, 100 mg/kg-day): 45400 ng/mL; concentration at 15 day ([1]; male, Day 15, 30 mg/kg-day): 49800 ng/mL; Percentage of the dose in the plasma ([1]; female, 100 mg/kg-day): 1.75 ± 0.67%; Percentage of the dose in the plasma ([1]; male, 30 mg/kg-day): 6.39 ± 2.03%; pH of the DI water solution ([2]; DI water solution): < 1; solubility ([2]; corn oil, stored refrigerated overnight, read-out: Solubility in corn oil): 200 mg/mL (≈ 1110 mM); solubility ([2]; deionized water, stored refrigerated overnight, read-out: Solubility in deionized (DI) water): 200 mg/mL (≈ 1110 mM); concentration at 91 day ([4]; female, Day 91, 6.3 mg/kg-day): 12600 ng/mL; concentration at 91 day ([4]; female, Day 91, 12.5 mg/kg-day): 24700 ng/mL; concentration at 91 day ([4]; female, Day 91, 25 mg/kg-day): 51000 ng/mL; concentration at 91 day ([4]; male, Day 91, 1.9 mg/kg-day): 12600 ng/mL; concentration at 91 day ([4]; male, Day 91, 3.8 mg/kg-day): 22300 ng/mL; concentration at 91 day ([4]; male, Day 91, 7.5 mg/kg-day): 43300 ng/mL; concentration at 91 day ([4]; male, Day 91, 15 mg/kg-day): 62100 ng/mL; concentration at 91 day ([4]; male, Day 91, 30 mg/kg-day): 84400 ng/mL; Percentage of the dose in the plasma ([4]; female, 100 mg/kg-day): 4.48 ± 1.63%; Percentage of the dose in the plasma ([4]; male, 30 mg/kg-day): 10.82 ± 2.76% |
